Read-outs that look alike come from different tables or passages of the source.
Columns and labels:
Rabbits = settings: rabbit, in vivo
From the text: Then, erythema and edema formation at the application site was observed. […] The mean value of the sum of erythema and edema scores was used as a simple primary skin irritation index. […]

Mice [1] = assay: Effect on scratching behavior induced by serotonin application in mice; assay type: in vivo, mouse; settings: counted for 15 minutes
Experimental: To the cervical and dorsal area of male ICR mice (n=3 to 6) at the age of 4 to 6 weeks, 100 μl of a solution obtained by dissolving serotonin hydrochloride in ethanol at 0.1% (hereinafter referred to as serotonin) was applied, and the number of scratching behavior at the application site with the hind legs occurring immediately after the application was counted for 15 minutes after administration with a counter. Administration of a test compound was carried out by skin application, intravenous administration or oral administration. In the case of skin application, the test compound that was dissolved in ethanol was applied in an amount of 100 μl concurrently with serotonin. In the case of intravenous administration, the test compound that was dissolved in physiological saline was administered at a dose of 10 ml/kg at 5 minutes prior to the serotonin application. In the case of oral administration, the test compound that was dissolved in distilled water was administered at a dose of 10 ml/kg at 20 minutes prior to the serotonin application. The control group of each administration route was given the respective solvent, and the values of scratching behavior were compared between the control group and the test compound group.
The results obtained by skin application of the test compound are shown in Table 3; the results obtained by intravenous administration of the test compound are shown in Table 4; and the results obtained by oral administration of the test compound are shown in Table 5.

Mice [2] = assay: Acute toxicity test in mice; assay type: in vivo, mouse; settings: intravenous, observed for 2 hours
From the text: Male ICR mice at the age of 4 to 6 weeks were used.

[3] = skin application, concentration 0.1% in ethanol, concurrently with serotonin
[4] = intravenous administration, dose 3 mg/kg, 5 minutes prior to serotonin

Cc1ccc2nc(C(=O)NCC(C)(C)C)nc(N[C@H]3CCCC[C@H]3NC(=N)N)c2c1.Cl.Cl [Comparative control B, 4-[((1S,2R)-2-{[amino(imino)methyl]amino}cyclohexyl)amino]-6-methyl-N-neopentyl quinazoline-2-carboxamide dihydrochloride, reference compound]
Simple primary skin irritation index (Rabbits): 2.4

CCOCCNC(=O)c1nc(N[C@H]2CCCC[C@H]2NC(=N)N)c2cc(C)ccc2n1.Cl.Cl [Comparative control C, 4-[((1S,2R)-2-{[amino(imino)methyl]amino}cyclohexyl)amino]-N-(2-ethoxyethyl)-6-methylquinazoline-2-carboxamide dihydrochloride, reference compound]
Simple primary skin irritation index (Rabbits; female, Kbs: JW, 24 h): 2.3

COCCCNC(=O)c1nc(N[C@H]2CCCC[C@H]2NC(=N)N)c2cc(C)ccc2n1.Cl.Cl [Comparative control D, 4-[((1S,2R)-2-{[amino(imino)methyl]amino}cyclohexyl)amino]-N-(3-methoxypropyl)-6-methylquinazoline-2-carboxamide dihydrochloride, reference compound]
Simple primary skin irritation index (Rabbits; female, Kbs: JW, 24 h): 2.0

Cc1ccc2nc(C(=O)NC(C)C)nc(N[C@H]3CCCC[C@H]3NC(=N)N)c2c1.Cl.Cl [Comparative control E, 4-[((1S,2R)-2-{[amino(imino)methyl]amino}cyclohexyl)amino]-N-isopropyl-6-methylquinazoline-2-carboxamide dihydrochloride, reference compound]
Simple primary skin irritation index (Rabbits; female, Kbs: JW, 24 h): 3.6

COCCNC(=O)c1nc(N[C@H]2CCCC[C@H]2NC(=N)N)c2cc(C)ccc2n1.Cl.Cl [Comparative control F, 4-[((1S,2R)-2-{[amino(imino)methyl]amino}cyclohexyl)amino]-N-(2-methoxyethyl)-6-methylquinazoline-2-carboxamide dihydrochloride, reference compound]
Simple primary skin irritation index (Rabbits; female, Kbs: JW, 24 h): 2.2

COCCNC(=O)c1nc(N[C@H]2CCCC[C@H]2NC(C)=N)c2cc(C)ccc2n1.Cl.Cl [Example 1, 4-{[(1S,2R)-2-(ethanimidoylamino)cyclohexyl]amino}-N-(2-methoxyethyl)-6-methylquinazolin-2-carboxamide dihydrochloride]
Average number of scratching behavior (Mice [1]; [3]): 57.8
Simple primary skin irritation index (Rabbits; female, Kbs: JW, 24 h): 0.3
Change in behavior (Mice [2]; 10 mg/kg): No obvious change

COC(C)(C)C(=N)N[C@@H]1CCCC[C@@H]1Nc1nc(C(=O)NCC(C)(C)C)nc2ccc(C)cc12.Cl.Cl [Example 19, N-(2,2-dimethylpropyl)-4-({(1S,2R)-2-[(2-methoxy-2-methylpropanimidoyl)amino]cyclohexyl}amino)-6-methylquinazolin-2-carboxamide dihydrochloride]
Average number of scratching behavior (Mice [1]; [3]): 69.2
Simple primary skin irritation index (Rabbits; female, Kbs: JW, 24 h): 0.4

COCCCNC(=O)c1nc(N[C@H]2CCCC[C@H]2NC(=N)CCOC)c2cc(C)ccc2n1.Cl.Cl [Example 35, 4-({(1S,2R)-2-[(3-methoxypropanimidoyl)amino]cyclohexyl}amino)-N-(3-methoxypropyl)-6-methylquinazolin-2-carboxamide dihydrochloride]
Average number of scratching behavior (Mice [1]; [3]): 69.0
Simple primary skin irritation index (Rabbits; female, Kbs: JW, 24 h): 1.5

Cc1ccc2nc(C(=O)NC(C)C)nc(N[C@H]3CCCC[C@H]3NC(=N)CCO)c2c1.Cl.Cl [Example 58, 4-({(1S,2R)-2-[(3-hydroxypropanimidoyl)amino]cyclohexyl}amino)-N-isopropyl-6-methylquinazolin-2-carboxamide dihydrochloride]
Average number of scratching behavior (Mice [1]; [3]): 55.5
Simple primary skin irritation index (Rabbits; female, Kbs: JW, 24 h): 0.4
Change in behavior (Mice [2]; 10 mg/kg): No obvious change

COCCCNC(=O)c1nc(N[C@H]2CCCC[C@H]2NC(=N)CCO)c2cc(C)ccc2n1.Cl.Cl [Example 59, 4-({(1S,2R)-2-[(3-hydroxypropanimidoyl)amino]cyclohexyl}amino)-N-(3-methoxypropyl)-6-methylquinazolin-2-carboxamide dihydrochloride]
Average number of scratching behavior (Mice [1]; [3]): 57.8
Simple primary skin irritation index (Rabbits; female, Kbs: JW, 24 h): 0.2

Cc1ccc2nc(C(=O)NCC(C)C)nc(N[C@H]3CCCC[C@H]3NC(=N)C(C)(C)O)c2c1.Cl.Cl [Example 60, 4-({(1S,2R)-2-[(2-hydroxy-2-methylpropanimidoyl)amino]cyclohexyl}amino)-N-isobutyl-6-methylquinazolin-2-carboxamide dihydrochloride]
Average number of scratching behavior (Mice [1]; [4]): 64.0
Simple primary skin irritation index (Rabbits; female, Kbs: JW, 24 h): 1.0
Change in behavior (Mice [2]; 5 mg/kg): No obvious change

CCOCCNC(=O)c1nc(N[C@H]2CCCC[C@H]2NC(=N)CCO)c2cc(C)ccc2n1.Cl.Cl [Example 61, N-(2-ethoxyethyl)-4-({(1S,2R)-2-[(3-hydroxypropanimidoyl)amino]cyclohexyl}amino)-6-methylquinazolin-2-carboxamide dihydrochloride]
Simple primary skin irritation index (Rabbits; female, Kbs: JW, 24 h): 0.4

COCCNC(=O)c1nc(N[C@H]2CCCC[C@H]2NC(=N)COC)c2cc(C)ccc2n1.Cl.Cl [Example 91, 4-({(1S,2R)-2-[(2-methoxyethanimidoyl)amino]cyclohexyl}amino)-N-(2-methoxyethyl)-6-methylquinazolin-2-carboxamide dihydrochloride]
Average number of scratching behavior (Mice [1]; [3]): 70.5
Simple primary skin irritation index (Rabbits; female, Kbs: JW, 24 h): 0.5

COCCCNC(=O)c1nc(N[C@H]2CCCC[C@H]2NC(C)=N)c2cc(C)ccc2n1.Cl.Cl [Example 92, 4-{[(1S,2R)-2-(ethanimidoylamino)cyclohexyl]amino}-N-(3-methoxypropyl)-6-methylquinazolin-2-carboxamide dihydrochloride]
Average number of scratching behavior (Mice [1]; oral administration, dose 30 mg/kg, 20 minutes prior to serotonin): 141.0
Average number of scratching behavior (Mice [1]; [3]): 76.3
Simple primary skin irritation index (Rabbits; female, Kbs: JW, 24 h): 0.0
Change in behavior (Mice [2]; 10 mg/kg): No obvious change

COCCCNC(=O)c1nc(N[C@H]2CCCC[C@H]2NC(=N)COC)c2cc(C)ccc2n1.Cl.Cl [Example 93, 4-({(1S,2R)-2-[(2-methoxyethanimidoyl)amino]cyclohexyl}amino)-N-(3-methoxypropyl)-6-methylquinazolin-2-carboxamide dihydrochloride]
Simple primary skin irritation index (Rabbits; female, Kbs: JW, 24 h): 0.2

CCOCCNC(=O)c1nc(N[C@H]2CCCC[C@H]2NC(C)=N)c2cc(C)ccc2n1.Cl.Cl [Example 94, 4-{[(1S,2R)-2-(ethanimidoylamino)cyclohexyl]amino}-N-(2-ethoxyethyl)-6-methylquinazolin-2-carboxamide dihydrochloride]
Simple primary skin irritation index (Rabbits; female, Kbs: JW, 24 h): 1.0

CCOCCNC(=O)c1nc(N[C@H]2CCCC[C@H]2NC(=N)COC)c2cc(C)ccc2n1.Cl.Cl [Example 95, N-(2-ethoxyethyl)-4-({(1S,2R)-2-[(2-methoxyethanimidoyl)amino]cyclohexyl}amino)-6-methylquinazolin-2-carboxamide dihydrochloride]
Simple primary skin irritation index (Rabbits; female, Kbs: JW, 24 h): 0.7

CC(=N)N[C@@H]1CCCC[C@@H]1Nc1nc(C(=O)NC(C)C)nc2ccc(C)cc12.Cl.Cl [Example 101, 4-{[(1S,2R)-2-(ethanimidoylamino)cyclohexyl]amino}-N-isopropyl-6-methylquinazolin-2-carboxamide dihydrochloride]
Average number of scratching behavior (Mice [1]; [3]): 56.8
Simple primary skin irritation index (Rabbits; female, Kbs: JW, 24 h): 2.6
Change in behavior (Mice [2]; 10 mg/kg): No obvious change

COCCNC(=O)c1nc(N[C@H]2CCCC[C@H]2NC(N)=NOC)c2cc(C)ccc2n1.Cl.Cl [Example 208, 4-[((1S,2R)-2-{[amino(methoxyimino)methyl]amino}cyclohexyl)amino]-N-(2-methoxyethyl)-6-methylquinazolin-2-carboxamide dihydrochloride]
Average number of scratching behavior (Mice [1]; [4]): 53.8
Average number of scratching behavior (Mice [1]; [3]): 81.0
Simple primary skin irritation index (Rabbits; female, Kbs: JW, 24 h): 0.2
Change in behavior (Mice [2]; 20 mg/kg): No obvious change

CON=C(N)N[C@@H]1CCCC[C@@H]1Nc1nc(C(=O)NCC(C)C)nc2ccc(C)cc12.Cl.Cl [Example 211, 4-[((1S,2R)-2-{[amino(methoxyimino)methyl]amino}cyclohexyl)amino]-N-isobutyl-6-methylquinazolin-2-carboxamide dihydrochloride]
Average number of scratching behavior (Mice [1]; [3]): 73.0
Simple primary skin irritation index (Rabbits; female, Kbs: JW, 24 h): 1.5
Change in behavior (Mice [2]; 10 mg/kg): No obvious change

CON(C)C(=N)N[C@@H]1CCCC[C@@H]1Nc1nc(C(=O)NCC(C)C)nc2ccc(C)cc12.Cl.Cl [Example 236, 4-{[(1S,2R)-2-({imino[methoxy(methyl)amino]methyl}amino)cyclohexyl]amino}-N-isobutyl-6-methylquinazolin-2-carboxamide dihydrochloride]
Simple primary skin irritation index (Rabbits; female, Kbs: JW, 24 h): 1.6

COCCNC(=O)c1nc(N[C@H]2CCCC[C@H]2NC(N)=NOC)c2cc(C)ccc2n1.COCCNC(=O)c1nc(N[C@H]2CCCC[C@H]2NC(N)=NOC)c2cc(C)ccc2n1.O=S(=O)(O)O [Example 248, 4-[((1S,2R)-2-{[amino(methoxyimino)methyl]amino}cyclohexyl)amino]-N-(2-methoxyethyl)-6-methylquinazolin-2-carboxamide 1/2 sulfate]
Simple primary skin irritation index (Rabbits): 0.8
